Results published in EP4778922A1, “BICYCLIC COMPOUND, AND PREPARATION METHOD THEREFOR AND PHARMACEUTICAL USE THEREOF” (Shanghai Jeyou Pharmaceutical Co., Ltd., priority 2023, dated 2025).
Like-named read-outs stand apart in the source and are kept apart here.

Experiments:
[1] = system: LNCaP cells; assay: Cell proliferation inhibition assay in LNCaP cells (0.2 nM DHT, CellTiter-Glo, 7 days); format: cell-based, human
Protocol: • 1. The human prostate cancer cell lines 22RV1 and LNCaP were purchased from ATCC. […] The cell concentration was adjusted to an appropriate concentration (determined based on the results of cell density optimization experiments), and the cells were seeded into a 96-well plate. A 100 µL cell suspension was added, resulting in 3000 cells per well. […] On the second day, for 22Rv1 cells, test compounds at different concentrations were added, and the cells were incubated at 37°C in a 5% CO2 incubator for 7 days; for LNCaP cells, test compounds at different concentrations were added first, and after 1 hour of treatment, 0.2 nM DHT was added. The cells were then incubated at 37°C in a 5% CO2 incubator for 7 days. • 4. After the incubation period, a volume of CellTiter-Glo detection reagent equal to the volume of the culture medium was added to each well. The plate was shaken and mixed thoroughly for 5 minutes, then incubated at room temperature for 10 minutes. Readings were taken using a PerkinElmer EnVision microplate reader. • 5.
The IC50 curve was fitted and the IC50 value was calculated using the software GraphPad Prism 8 with the calculation formula XY-analysis/Nonlinear regression (curve fit)/Dose response-Inhibition/log (inhibitor) vs. response-Variable slope (four parameters).

[2] = target: T1, CYP2C19 (Homo sapiens, UniProt P33261); assay: CYP inhibition assay in human liver microsomes; format: in vitro ADME; conditions: human liver microsomes, NADPH; read-out: CYPs 2C19 (IC50)
T1 construct: co-incubated with human liver microsomes; from tissue; host or cells: human liver microsomes
T1 sequence (P33261 whole entry): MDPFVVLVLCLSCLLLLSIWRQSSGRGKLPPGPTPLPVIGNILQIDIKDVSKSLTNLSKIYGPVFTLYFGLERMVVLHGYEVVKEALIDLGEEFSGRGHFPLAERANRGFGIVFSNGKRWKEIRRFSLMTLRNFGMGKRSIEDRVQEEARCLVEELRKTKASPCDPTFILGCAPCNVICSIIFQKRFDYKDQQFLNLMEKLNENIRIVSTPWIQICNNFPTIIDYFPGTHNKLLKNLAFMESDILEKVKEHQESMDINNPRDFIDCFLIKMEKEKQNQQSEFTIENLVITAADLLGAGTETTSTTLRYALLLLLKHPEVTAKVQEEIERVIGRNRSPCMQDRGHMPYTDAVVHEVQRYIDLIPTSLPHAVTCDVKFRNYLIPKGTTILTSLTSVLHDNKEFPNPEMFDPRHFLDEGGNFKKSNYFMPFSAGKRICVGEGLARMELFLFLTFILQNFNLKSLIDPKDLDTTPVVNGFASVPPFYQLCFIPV
Protocol: (§1) Test Example 3: CYP Inhibition Assay
(§2) An in vitro assay system was used to evaluate the effects of the compounds on the activities of several human liver microsomal cytochrome P450 (CYP) isozymes (CYP1A2, CYP2C9, CYP2D6, CYP3A4 (testosterone/midazolam), CYP2C19, and CYP2C8). Specific probe substrates for CYP450 isozymes were co-incubated with human liver microsomes and the compound at various concentrations (0, 0.0300, 0.100, 0.300, 1.00, 3.00, 10.0 µM). The reaction was initiated by adding the coenzyme NADPH. After the reaction was completed, the samples were processed, and the metabolites generated from the probe substrates were detected by liquid chromatography-tandem mass spectrometry (LC-MS/MS). Based on the resulting dose-response curves, the IC50 values of the test compounds for the probe substrate reactions catalyzed by each CYP isozyme were calculated.

[3] = target: T2, CYP3A4 (testosterone/midazolam) (Homo sapiens, UniProt P08684); assay: CYP inhibition assay in human liver microsomes; format: in vitro ADME
T2 construct: co-incubated with human liver microsomes; from tissue; host or cells: human liver microsomes
T2 sequence (P08684 whole entry): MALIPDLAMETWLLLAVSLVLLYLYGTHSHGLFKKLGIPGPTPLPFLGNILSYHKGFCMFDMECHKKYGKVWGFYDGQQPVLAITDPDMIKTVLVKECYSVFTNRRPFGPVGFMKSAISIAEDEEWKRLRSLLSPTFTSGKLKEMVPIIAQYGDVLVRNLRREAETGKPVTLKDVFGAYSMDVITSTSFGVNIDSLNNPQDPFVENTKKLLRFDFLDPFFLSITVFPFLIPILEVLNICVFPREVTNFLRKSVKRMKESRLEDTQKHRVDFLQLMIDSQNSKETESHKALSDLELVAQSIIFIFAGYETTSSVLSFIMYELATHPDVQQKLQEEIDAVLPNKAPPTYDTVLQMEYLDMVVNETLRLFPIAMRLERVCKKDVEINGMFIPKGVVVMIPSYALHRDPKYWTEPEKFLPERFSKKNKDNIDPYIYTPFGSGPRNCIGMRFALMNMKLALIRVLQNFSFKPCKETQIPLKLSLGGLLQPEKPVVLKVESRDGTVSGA
Protocol: as §1, §2

[4] = target: T3, CYP2C8 (Homo sapiens, UniProt P10632); assay: CYP inhibition assay in human liver microsomes; format: in vitro ADME; conditions: human liver microsomes, NADPH; read-out: CYPs 2C8 (IC50)
T3 construct: co-incubated with human liver microsomes; from tissue; host or cells: human liver microsomes
T3 sequence (P10632 1-490): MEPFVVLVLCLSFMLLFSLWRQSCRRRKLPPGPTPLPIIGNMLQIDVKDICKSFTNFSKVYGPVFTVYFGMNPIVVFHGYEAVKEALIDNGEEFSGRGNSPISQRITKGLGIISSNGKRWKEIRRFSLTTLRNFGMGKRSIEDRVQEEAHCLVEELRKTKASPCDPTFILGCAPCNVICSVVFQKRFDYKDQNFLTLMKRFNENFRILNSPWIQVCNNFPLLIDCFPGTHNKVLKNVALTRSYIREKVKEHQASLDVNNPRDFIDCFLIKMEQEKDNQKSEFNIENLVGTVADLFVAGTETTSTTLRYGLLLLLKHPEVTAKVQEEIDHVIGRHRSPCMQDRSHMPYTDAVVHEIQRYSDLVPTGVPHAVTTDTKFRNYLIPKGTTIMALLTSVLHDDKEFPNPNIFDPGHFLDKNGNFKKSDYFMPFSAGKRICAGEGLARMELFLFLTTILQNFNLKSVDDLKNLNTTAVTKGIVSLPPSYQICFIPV
Protocol: as §1, §2

[5] = Mouse pharmacokinetic test; format: in vivo, ICR mice; conditions: PO-30mpk, 30 mg/kg
How it was run: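 Male naive ICR mice (25–30 g, n=3 per route) received a single intravenous or oral dose, with feeding resumed 4 h post-dose. Blood was centrifuged at 4°C, and plasma was stored at -80°C until analysis.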

[6] = system: 22RV1 cells; assay: Cell proliferation inhibition assay in 22RV1 cells (CellTiter-Glo, 7 days); format: cell-based, human
How it was run: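 22RV1 cells received compound alone; LNCaP cells were stimulated with 0.2 nM DHT added 1 h after compound. Seeding was 3000 cells/well.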

[7] = target: T4, CYP2C9 (Homo sapiens, UniProt P11712); assay: CYP inhibition assay in human liver microsomes; format: in vitro ADME; conditions: human liver microsomes, NADPH; read-out: CYPs 2C9 (IC50)
T4 construct: co-incubated with human liver microsomes; from tissue; host or cells: human liver microsomes
T4 sequence (P11712 whole entry): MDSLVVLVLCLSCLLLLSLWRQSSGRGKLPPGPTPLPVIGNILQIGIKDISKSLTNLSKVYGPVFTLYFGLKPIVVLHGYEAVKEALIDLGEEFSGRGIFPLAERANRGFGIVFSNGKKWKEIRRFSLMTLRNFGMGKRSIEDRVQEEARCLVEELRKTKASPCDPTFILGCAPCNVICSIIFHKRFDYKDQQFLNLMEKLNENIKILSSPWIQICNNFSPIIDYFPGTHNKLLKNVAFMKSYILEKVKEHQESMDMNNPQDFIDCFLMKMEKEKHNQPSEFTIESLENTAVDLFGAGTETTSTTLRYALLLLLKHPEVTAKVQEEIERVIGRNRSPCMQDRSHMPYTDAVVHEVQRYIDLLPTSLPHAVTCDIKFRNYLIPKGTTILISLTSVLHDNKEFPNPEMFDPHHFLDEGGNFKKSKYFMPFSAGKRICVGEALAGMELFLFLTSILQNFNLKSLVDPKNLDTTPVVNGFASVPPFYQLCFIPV
Protocol: as §1, §2

[8] = probe substrate midazolam, read-out: CYPs 3A4 (Midazolam) (IC50)
[9] = probe substrate testosterone, read-out: CYPs 3A4 (Testosterone) (IC50)

Compound	IC50 [2] [nM]	IC50 [3, 8] [nM]	IC50 [3, 9] [nM]	IC50 [4] [nM]	Cmax ([5]; plasma, po) [ng/mL]	half-life ([5]; plasma, po) [h]	Tmax ([5]; plasma, po, read-out: Tmax) [h]	IC50 ([6]; Homo sapiens, 22Rv1, 168 h) [nM]	IC50 ([1]; Homo sapiens, 168 h) [nM]	IC50 ([6]; Homo sapiens, 168 h) [nM]	other results
CC(C)(c1ccc(-c2cnc(OCc3ccnc(N4CC(S(=N)(=O)C5CC5)C4)n3)cn2)cc1)c1cc(Cl)c(OCCCl)c(C#N)c1 (single isomer, unassigned) [Compound 350A]	> 10000	> 10000	> 10000	> 10000							IC50 ([1]; Homo sapiens, LNCaP, 168 h): 55 nM
CC(C)(c1ccc(-c2cnc(OCc3ccnc(N4CC5(CCS5(=N)=O)C4)n3)cn2)cc1)c1cc(Cl)c(OCCCl)c(C#N)c1 (single isomer, unassigned) [Compound 375A]	> 10000	> 10000	> 10000	> 10000	109000	6.82	3.3	89			IC50 [1]: 58 nM; AUCi [5]: 1307.079 µg·h/mL
CC(C)(c1ccc(-c2cnc(OCc3ccnc(N4CC5(CCS5(=N)=O)C4)n3)cn2)cc1)c1cc(Cl)c(OCCCl)c(C#N)c1 (single isomer, unassigned) [Compound 375B]	> 10000	> 10000	> 10000	> 10000							IC50 ([1]; Homo sapiens, LNCaP, 168 h): 100 nM; AUCi [5]: 2620.877 µg·h/mL; Cmax (PO) [5]: 153425 ng/mL; T1/2 [5]: 8.67 h; Tmax [5]: 4.0 h; IC50 [6]: 120 nM
CC(C)(c1ccc(-c2ccc(OCc3ccnc(N=S4(=O)CCCC4)n3)cc2)cc1)c1cc(Cl)c(OCCCl)c(C#N)c1 [Compound 7]		> 10000	> 10000	> 10000	12300	5	3.3	460			AUC(0-inf) ([5]; plasma, po): 161 µg·h/mL; IC50 [7]: 7300 nM
CC(C)(c1ccc(-c2ccc(OCc3ccnc(N=S4(=O)CCCC4)n3)cc2)cc1)c1cnc2c(cnn2CCCl)c1 [Compound 46]	> 10000	4500	> 10000	> 10000	20700	3.58	4	590			AUC(0-inf) ([5]; plasma, po): 220 µg·h/mL; IC50 [7]: 6700 nM
CC(C)(c1ccc(-c2ccc(OC3CCN(c4ccnc(P(C)(C)=O)n4)CC3)cc2)cc1)c1cc(Cl)c(OCCCl)c(C#N)c1 [Compound 48]	> 10000	> 10000	> 10000	1700	13000	18	4	440			AUC(0-inf) ([5]; plasma, po): 358 µg·h/mL; IC50 [7]: 5400 nM
CC(C)(c1ccc(-c2ccc(OCc3ccnc(N=S4(=O)CCOCC4)n3)cn2)cc1)c1cc(Cl)c(OCCCl)c(C#N)c1 [Compound 62]					19900	2	2	260			IC50 ([1]; Homo sapiens, LNCaP, 168 h): 830 nM; AUC(0-inf) ([5]; plasma, po): 188 µg·h/mL
CC(C)(c1ccc(-c2ccc(OC3CCN(c4ccnc(N=S5(=O)CCCC5)n4)CC3)cc2)cc1)c1cc(Cl)c(OCCCl)c(C#N)c1 [Compound 65]	> 10000	> 10000	> 10000	4300				1180			IC50 [7]: > 10000 nM
Cc1cc(OCc2ccnc(P(C)(C)=O)n2)ccc1-c1ccc(C(C)(C)c2cc(Cl)c(OCCCl)c(C#N)c2)cc1 [Compound 119]					17400	11.8	4.7	740			IC50 ([1]; Homo sapiens, LNCaP, 168 h): 940 nM; AUC(0-inf) ([5]; plasma, po): 333 µg·h/mL
CC(C)(c1ccc(-c2cnc(OCc3ccnc(N=S4(=O)CCOCC4)n3)cn2)cc1)c1cc(Cl)c(OCCCl)c(C#N)c1 [Compound 206]					32100	1.7	2	410			IC50 ([1]; Homo sapiens, LNCaP, 168 h): 980 nM; AUC(0-inf) ([5]; plasma, po): 236 µg·h/mL
CC(C)(c1ccc(-c2ccc(/C=C/c3cnc(P(C)(C)=O)nc3)cc2)cc1)c1cc(Cl)c(OCCCl)c(C#N)c1 [Compound 234]					13400	11	7	350			IC50 ([1]; Homo sapiens, LNCaP, 168 h): 580 nM; AUC(0-inf) ([5]; plasma, po): 307 µg·h/mL
CC(C)(c1ccc(-c2ccc(OCC3CC(CN4CC(S(C)(=O)=O)C4)C3)cc2)cc1)c1cc(Cl)c(OCCCl)c(C#N)c1 (stereo not drawn) [Compound 302]	> 10000	> 10000	> 10000	> 10000				1410			IC50 [7]: > 10000 nM
CC(C)(c1ccc(-c2cnc(OCc3ccnc(N4CC(S(N)(=O)=O)C4)n3)cn2)cc1)c1cc(Cl)c(OCCCl)c(C#N)c1 [Compound 378]	> 10000	> 10000	> 10000	> 10000				170			IC50 ([1]; Homo sapiens, LNCaP, 168 h): 61 nM
CC(C)(c1ccc(-c2cnc(COc3ccnc(P(C)(C)=O)n3)cn2)cc1)c1cc(Cl)c(OCCCl)c(C#N)c1 [Compound 432]									660	840	
CC(C)(c1ccc(-c2ccc(OCc3ccnc(N=S4(=O)CCN(CC(O)c5ccccc5)CC4)n3)cc2)cc1)c1cc(Cl)c(OCCCl)c(C#N)c1 (stereo not drawn) [Compound 435]									650	180	
CC(=O)c1nccc(COc2ccc(-c3ccc(C(C)(C)c4cc(Cl)c(OCCCl)c(C#N)c4)cc3)cc2)n1 [Compound 440]									570	990	
CC(C)(c1ccc(-c2ccc3cc(OCc4ccnc(P(C)(C)=O)n4)ccc3c2)cc1)c1cc(Cl)c(OCCCl)c(C#N)c1 [Compound 442]									160	380	
CC(C)(c1ccc(-c2cnc(OCc3ccnc(N4CCC5(CC4)CS(=N)(=O)C5)n3)cn2)cc1)c1cc(Cl)c(OCCCl)c(C#N)c1 [Compound 444]									130	120	
CC(C)(c1ccc(-c2ccc(OCC34CC(c5cnc(P(C)(C)=O)nc5)(C3)C4)nc2)cc1)c1cc(Cl)c(OCCCl)c(C#N)c1 [Compound 445]									80	130	
CC(C)(c1cnc(-c2ccc(OCc3ccnc(N4CC(S(C)(=O)=O)C4)n3)cc2)nc1)c1cc(Cl)c(OCCCl)c(C#N)c1 [Compound 446]									140	310	
CNS(=O)(=O)C1CN(c2nccc(COc3cnc(-c4ccc(C(C)(C)c5cc(Cl)c(OCCCl)c(C#N)c5)cc4)cn3)n2)C1 [Compound 462]									42	160	
CC(C)(c1ccc(-c2ccc(OCc3ccnc(N4C5CCC4CC(S(C)(=O)=O)C5)n3)cc2)cc1)c1cc(Cl)c(OCCCl)c(C#N)c1 (stereo not drawn) [Compound 463]									93	88	
CC(C)(c1cc(Cl)c(OCCCl)c(C#N)c1)c1ccc(-c2ccc(OCc3ccnc(N4CC(S(C)(=O)=O)C4)n3)cn2)cn1 [Compound 471]									430	950	
CC(C)(c1cc(Cl)c(OCCCl)c(C#N)c1)c1ccc(-c2ccc(OCc3ccnc(N4CC(S(C)(=O)=O)C4)n3)cc2)cn1 [Compound 476]									44	170	
CC(C)(c1cc(Cl)c(OCCCl)c(C#N)c1)c1ccc(-c2ccc(OCc3ccnc(N4CC(S(C)(=N)=O)C4)n3)cc2)cn1 (stereo not drawn) [Compound 477]									240	690	
